Assay results reported in the NIST ThermoML archive (doi:10.1021/je2011055).
± gives the expanded uncertainty stated by the source.

Settings: Liquid, Closed cell (Static) method

| Structure (SMILES) | vapor or sublimation pressure (258.15 K) | vapor or sublimation pressure (268.15 K) | vapor or sublimation pressure (278.15 K) | vapor or sublimation pressure (288.15 K) |
| --- | --- | --- | --- | --- |
| F/C=C/C(F)(F)F [trans-1,3,3,3-tetrafluoropropene] | 119.3 ± 1.1 kPa | 178.4 ± 1.1 kPa | 258.1 ± 1.3 kPa | 362.8 ± 1.5 kPa |
| CC(C)C [2-methylpropane] | 88.9 ± 1 kPa | 130.8 ± 1.1 kPa | 186.7 ± 1.1 kPa | 258.7 ± 1.3 kPa |
